Measured values from PubChem BioAssay (NCI).
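Method: 48-hour compound exposure of cells in 96-well plates, five concentrations, linear interpolation of endpoints. Abbreviation: GI50, concentration required for 50% inhibition of growth. TGI marks complete inhibition of growth.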

Experiments:
Experiment in all cases: growth of human tumour cells (NCI), 48 h
K-562 leukemia = system: K-562 leukemia
MALME-3M melanoma = system: MALME-3M melanoma
UO-31 renal = system: UO-31 renal
OVCAR-5 ovarian = system: OVCAR-5 ovarian
HCT-15 colon = system: HCT-15 colon
NCI-H226 lung = system: NCI-H226 lung
MDA-MB-231 breast = system: MDA-MB-231 breast
BT-549 breast = system: BT-549 breast
HCC-2998 colon = system: HCC-2998 colon
MDA-MB-435 = system: MDA-MB-435
CAKI-1 renal = system: CAKI-1 renal
SN12C renal = system: SN12C renal
NCI/ADR-RES ovarian = system: NCI/ADR-RES ovarian
SK-MEL-5 melanoma = system: SK-MEL-5 melanoma
COLO 205 colon = system: COLO 205 colon
EKVX NSCLC = system: EKVX NSCLC
OVCAR-8 ovarian = system: OVCAR-8 ovarian
DU-145 prostate = system: DU-145 prostate
HT29 colon = system: HT29 colon
T-47D breast = system: T-47D breast
IGROV1 ovarian = system: IGROV1 ovarian
NCI-H522 lung = system: NCI-H522 lung
OVCAR-3 ovarian = system: OVCAR-3 ovarian
SNB-19 CNS = system: SNB-19 CNS
CCRF-CEM leukemia = system: CCRF-CEM leukemia
A549 NSCLC = system: A549 NSCLC
U251 CNS = system: U251 CNS
ACHN renal = system: ACHN renal
786-0 renal = system: 786-0 renal
SK-MEL-2 melanoma = system: SK-MEL-2 melanoma
KM12 colon = system: KM12 colon
SF-295 CNS = system: SF-295 CNS
SW-620 colon = system: SW-620 colon
SK-OV-3 ovarian = system: SK-OV-3 ovarian
A498 renal = system: A498 renal
MCF7 breast = system: MCF7 breast
HL-60(TB) leukemia = system: HL-60(TB) leukemia
PC-3 prostate = system: PC-3 prostate
LOX IMVI melanoma = system: LOX IMVI melanoma
SF-268 CNS = system: SF-268 CNS
NCI-H23 lung = system: NCI-H23 lung
UACC-257 melanoma = system: UACC-257 melanoma
SK-MEL-28 melanoma = system: SK-MEL-28 melanoma
SF-539 CNS = system: SF-539 CNS
TK-10 renal = system: TK-10 renal
UACC-62 melanoma = system: UACC-62 melanoma
HOP-92 NSCLC = system: HOP-92 NSCLC
M14 melanoma = system: M14 melanoma
OVCAR-4 ovarian = system: OVCAR-4 ovarian
HCT-116 colon = system: HCT-116 colon
NCI-H460 lung = system: NCI-H460 lung
SR leukemia = system: SR leukemia
RXF 393 renal = system: RXF 393 renal
HS 578T breast = system: HS 578T breast
RPMI-8226 leukemia = system: RPMI-8226 leukemia
SNB-75 CNS = system: SNB-75 CNS
HOP-62 NSCLC = system: HOP-62 NSCLC
MDA-MB-468 breast = system: MDA-MB-468 breast
MOLT-4 leukemia = system: MOLT-4 leukemia

Compound: O=C(NNc1nc2cc(C(F)(F)F)ccc2n2cccc12)c1cnccn1
- GI50 (K-562 leukemia): 356 nM
- GI50 (MALME-3M melanoma): 1140 nM
- TGI (MALME-3M melanoma): 2550 nM
- GI50 (UO-31 renal): 83.2 nM
- TGI (UO-31 renal): 1570 nM
- GI50 (OVCAR-5 ovarian): 776 nM
- TGI (OVCAR-5 ovarian): 2490 nM
- GI50 (HCT-15 colon): 89.1 nM
- TGI (HCT-15 colon): 1550 nM
- GI50 (NCI-H226 lung): 772 nM
- TGI (NCI-H226 lung): 3900 nM
- GI50 (MDA-MB-231 breast): 438 nM
- TGI (MDA-MB-231 breast): 1940 nM
- GI50 (BT-549 breast): 1060 nM
- TGI (BT-549 breast): 3410 nM
- GI50 (HCC-2998 colon): 463 nM
- TGI (HCC-2998 colon): 2030 nM
- GI50 (MDA-MB-435): 807 nM
- TGI (MDA-MB-435): 2710 nM
- GI50 (CAKI-1 renal): 299 nM
- TGI (CAKI-1 renal): 1660 nM
- GI50 (SN12C renal): 411 nM
- TGI (SN12C renal): 2070 nM
- GI50 (NCI/ADR-RES ovarian): 255 nM
- TGI (NCI/ADR-RES ovarian): 1480 nM
- GI50 (SK-MEL-5 melanoma): 602 nM
- TGI (SK-MEL-5 melanoma): 1960 nM
- GI50 (COLO 205 colon): 364 nM
- TGI (COLO 205 colon): 1480 nM
- GI50 (EKVX NSCLC): 176 nM
- TGI (EKVX NSCLC): 1230 nM
- GI50 (OVCAR-8 ovarian): 365 nM
- TGI (OVCAR-8 ovarian): 2380 nM
- GI50 (DU-145 prostate): 526 nM
- TGI (DU-145 prostate): 2440 nM
- GI50 (HT29 colon): 553 nM
- TGI (HT29 colon): 2310 nM
- GI50 (T-47D breast): 292 nM
- TGI (T-47D breast): 1720 nM
- GI50 (IGROV1 ovarian): 146 nM
- TGI (IGROV1 ovarian): 1600 nM
- GI50 (NCI-H522 lung): 248 nM
- TGI (NCI-H522 lung): 944 nM
- GI50 (OVCAR-3 ovarian): 287 nM
- TGI (OVCAR-3 ovarian): 1580 nM
- GI50 (SNB-19 CNS): 437 nM
- TGI (SNB-19 CNS): 2540 nM
- GI50 (CCRF-CEM leukemia): 141 nM
- TGI (CCRF-CEM leukemia): 1950 nM
- GI50 (A549 NSCLC): 424 nM
- TGI (A549 NSCLC): 8910 nM
- GI50 (U251 CNS): 199 nM
- TGI (U251 CNS): 2210 nM
- GI50 (ACHN renal): 217 nM
- TGI (ACHN renal): 1450 nM
- GI50 (786-0 renal): 365 nM
- TGI (786-0 renal): 1690 nM
- GI50 (SK-MEL-2 melanoma): 475 nM
- TGI (SK-MEL-2 melanoma): 1730 nM
- GI50 (KM12 colon): 341 nM
- TGI (KM12 colon): 2060 nM
- GI50 (SF-295 CNS): 134 nM
- TGI (SF-295 CNS): 1590 nM
- GI50 (SW-620 colon): 422 nM
- TGI (SW-620 colon): 2470 nM
- GI50 (SK-OV-3 ovarian): 477 nM
- TGI (SK-OV-3 ovarian): 1860 nM
- GI50 (A498 renal): 1620 nM
- TGI (A498 renal): 3340 nM
- GI50 (MCF7 breast): 293 nM
- TGI (MCF7 breast): 1500 nM
- GI50 (HL-60(TB) leukemia): 166 nM
- TGI (HL-60(TB) leukemia): 1690 nM
- GI50 (PC-3 prostate): 325 nM
- TGI (PC-3 prostate): 2190 nM
- GI50 (LOX IMVI melanoma): 128 nM
- TGI (LOX IMVI melanoma): 1300 nM
- GI50 (SF-268 CNS): 357 nM
- TGI (SF-268 CNS): 3900 nM
- GI50 (NCI-H23 lung): 517 nM
- TGI (NCI-H23 lung): 2030 nM
- GI50 (UACC-257 melanoma): 501 nM
- TGI (UACC-257 melanoma): 1940 nM
- GI50 (SK-MEL-28 melanoma): 478 nM
- TGI (SK-MEL-28 melanoma): 2090 nM
- GI50 (SF-539 CNS): 406 nM
- TGI (SF-539 CNS): 1980 nM
- GI50 (TK-10 renal): 452 nM
- TGI (TK-10 renal): 1770 nM
- GI50 (UACC-62 melanoma): 302 nM
- TGI (UACC-62 melanoma): 1570 nM
- GI50 (HOP-92 NSCLC): 330 nM
- TGI (HOP-92 NSCLC): 2200 nM
- GI50 (M14 melanoma): 250 nM
- TGI (M14 melanoma): 1370 nM
- GI50 (OVCAR-4 ovarian): 266 nM
- TGI (OVCAR-4 ovarian): 2270 nM
- GI50 (HCT-116 colon): 182 nM
- TGI (HCT-116 colon): 1320 nM
- GI50 (NCI-H460 lung): 116 nM
- TGI (NCI-H460 lung): 5580 nM
- GI50 (SR leukemia): 46.9 nM
- TGI (SR leukemia): 1200 nM
- GI50 (RXF 393 renal): 1050 nM
- TGI (RXF 393 renal): 2310 nM
- GI50 (HS 578T breast): 1500 nM
- TGI (HS 578T breast): 10700 nM
- GI50 (RPMI-8226 leukemia): 290 nM
- TGI (RPMI-8226 leukemia): 3450 nM
- GI50 (SNB-75 CNS): 1010 nM
- TGI (SNB-75 CNS): 2880 nM
- GI50 (HOP-62 NSCLC): 214 nM
- TGI (HOP-62 NSCLC): 1920 nM
- GI50 (MDA-MB-468 breast): 190 nM
- TGI (MDA-MB-468 breast): 661 nM
- GI50 (MOLT-4 leukemia): 235 nM
- TGI (MOLT-4 leukemia): 5060 nM
